Data set [1] is described as follows: Stability test of moisture-and-heat resistance of near-IR absorption filter. The data set is classed as physicochemical. As to the method: (§1) 1.2 part of each compound obtained in each Example was dissolved in 18.8 part of MEK. 80 part of a resin solution obtained by dissolving 25 part of an acrylic resin (Dianal BR-80, manufactured by Mitsubishi Rayon Co., Ltd.) in 75 part of MEK was mixed with the obtained solution to obtain a solution for coating. The solution was applied to form a film with a thickness of 2 to 4 μm on a polyester film and dried at 80° C. to obtain a near-IR absorption filter of the invention.
The obtained near-IR absorption filter was subjected to a stability test of moisture-and-heat resistance for 14 days in a constant temperature and constant humidity apparatus under 60° C. and 95% RH conditions. The filter was subjected to color measurement by a spectrophotometer before and after the test to calculate L*, a*, and b* values. If the + value of b* value is high, it means that the hue is yellowish and if b* value is close to 0, it means that the yellowish degree is low and filter is desirable and therefore, the hue evaluation and stability evaluation were done based on the b* value and its change.

Data set [2] is described as follows: Comparative test of solubility measurement. To be noted: room temperature; for solubility in MEK: methyl ethyl ketone.
Method: The solubility was measured for the compounds obtained in the above-mentioned Examples at a room temperature in methyl ethyl ketone (MEK) and toluene.
Data set [3] in a line: Comparative test of molar absorption coefficient measurement. The class given is physicochemical. To be noted: in dichloromethane; in M-1·cm-1. An excerpt:
The compounds obtained in the above-mentioned Examples were subjected to the measurement of molar absorption coefficient (ε) in dichloromethane.

Data set [4] is described as follows: maximum absorption wavelength (λmax) in dichloromethane. The class given is physicochemical. An excerpt:
λmax: 1,102 nm (in dichloromethane);

A short description of data set [5]: Stability test of light fastness of cyanine dye film. The data set is classed as physicochemical. The following applies: for remaining ratio of cyanine dye (%), initial period: OM-57 dye film with compound added, before irradiation; for remaining ratio of cyanine dye (%), 100-hour after / remaining ratio of cyanine dye (%), 150-hour after: Weatherometer 0.36 W/m^2, 24° C., 30% RH. As to the method: 0.3 part of the cyanine dye (OM-57) was dissolved in 15 part of tetrafluoropropanol and 0.04 part of the Compound No. 3 was added to the obtained solution to produce a coating solution. The obtained coating solution was applied to a polycarbonate substrate by spin coating to form a dye film. The […] the conditions: light source output: 0.36 W/m^2; bath temperature: 24° C.; black panel temperature: 40° C.; humidity: 30% RH: by a Weatherometer (Ci4000, manufactured by Atlas Co.). After that, the remaining ratio of the cyanine dye was measured by a spectrophotometer.
For comparison, a dye film was formed and evaluated in the same manner, except that the compound described in Patent Document No. 3; hexafluoroantimonate of tetrakis[p-di(n-butyl)aminophenyl]phenylenediimmonium (Comparative Example 7: Compound No. 153); was used in place of the Compound No. 1.

A short description of data set [6]: thermal decomposition point (weight decrease starting point) by TG-DTA. The class given is physicochemical. To be noted: measured by TG-DTA. As for the experimental part: the melting point: around 170° C.; and the thermal decomposition point (the weight decrease starting point): around 280° C. (measured by TG-DTA)
The nature of data set [7]: Stability test of light fastness of diimmonium compound thin film. The class given is physicochemical. The following applies: for remaining ratio of diimmonium compound (%), 100-hour after / remaining ratio of diimmonium compound (%), 150-hour after: Weatherometer 0.36 W/m^2, 24° C., 30% RH; for remaining ratio of diimmonium compound (%), initial period: thin film on polycarbonate, before irradiation. As for the experimental part: 0.1 part of the Compound No. 3 was added to 10 part of tetrafluoropropanol to produce a coating solution. The obtained coating solution was applied to a polycarbonate substrate by spin coating to form a thin film of the diimmonium compound. The […] source output: 0.36 W/m^2; bath temperature: 24° C.; black panel temperature: 40° C.; humidity: 30% RH: by a Weatherometer (Ci4000, manufactured by Atlas Co.). After that, the remaining ratio of the diimmonium compound was measured by a spectrophotometer.
For comparison, a dye film was formed and evaluated in the same manner, except that the compound described in Patent Document No. 3; hexafluoroantimonate of tetrakis[p-di(n-butyl)aminophenyl]phenylenediimmonium (Comparative Example 8: Compound No. 153); was used in place of the Compound No. 3.

The nature of data set [8]: Stability test of heat resistance of near-IR absorption filter. The data set is classed as physicochemical. As to the method: as §1
[…] After that, the filters were subjected to color measurement by a spectrophotometer to calculate L*, a*, and b* values and their stability was evaluated based on the change in b* values. If the b* is low, that is, the absorption in visible ray region is low, the near-IR absorption filter is preferable.

Where [9] appears, read: acrylic resin filter, before test.

Consider `N#CCCCN(CCCC#N)c1ccc([N+](=C2C=CC(=[N+](c3ccc(N(CCCC#N)CCCC#N)cc3)c3ccc(N(CCCC#N)CCCC#N)cc3)C=C2)c2ccc(N(CCCC#N)CCCC#N)cc2)cc1.O=S(=O)([N-]S(=O)(=O)C(F)(F)F)C(F)(F)F.O=S(=O)([N-]S(=O)(=O)C(F)(F)F)C(F)(F)F` [Compound No. 3], for which the “b* value, difference” value in data set [1] (14-day after minus initial, 60° C. and 95% RH) is recorded as 2.5. The “b* value, 14-day after” value in data set [1] (acrylic resin filter, 14 days at 60° C. and 95% RH) came to 6.1. For the same compound, in data set [1] (setting [9]), the “b* value, initial period” value was found to be 3.6. Further, in data set [2], the “solubility in MEK” value turned out to be 2% and the solubility in toluene result was “insoluble”. For the same compound, the “molar absorption coefficient (ε)” value in data set [3] is on record as 109,000. Further, the λmax in data set [4] is given as 1,064 nm. In addition, in data set [5], the “remaining ratio of cyanine dye (%), initial period” value is 100%; the “remaining ratio of cyanine dye (%), 100-hour after” value stood at 47%; the “remaining ratio of cyanine dye (%), 150-hour after” value is 27%. The “thermal decomposition point (the weight decrease starting point)” value in data set [6] is “around 282 °C”. Besides, in data set [7], the “remaining ratio of diimmonium compound (%), 100-hour after” value is 88%; the “remaining ratio of diimmonium compound (%), 150-hour after” value is given as 86%; the “remaining ratio of diimmonium compound (%), initial period” value was 100%.
Regarding `CCCCN(CCCC)c1ccc([N+](=C2C=CC(=[N+](c3ccc(N(CCCC)CCCC)cc3)c3ccc(N(CCCC)CCCC)cc3)C=C2)c2ccc(N(CCCC)CCCC)cc2)cc1.[F][Sb-]([F])([F])([F])([F])[F].[F][Sb-]([F])([F])([F])([F])[F]` [Compound No. 153, hexafluoroantimonate of N,N,N′,N′-tetrakis[p-di(n-butyl)aminophenyl]phenylenediimmonium, reference compound], in data set [2], the “solubility in MEK” value turned out to be 4.5% and the solubility in toluene result was “insoluble”. Also, in data set [5], the “remaining ratio of cyanine dye (%), initial period” value is on record as 100%; the “remaining ratio of cyanine dye (%), 100-hour after” value is 27%; the “remaining ratio of cyanine dye (%), 150-hour after” value came to 0%. The “b* value, initial period” value in data set [8] (setting [9]) stood at 2.5. Moreover, the “b* value, 14-day after” value in data set [8] (acrylic resin filter, oven at 80° C., head prints 14-day, text 21 days) is on record as 4.4. Also, the “b* value, difference” value in data set [8] (after minus initial, oven at 80° C.) turned out to be 1.9. Moreover, in data set [7], the “remaining ratio of diimmonium compound (%), 100-hour after” value is 81%; the “remaining ratio of diimmonium compound (%), 150-hour after” value worked out at 76%; the “remaining ratio of diimmonium compound (%), initial period” value is given as 100%.

Values taken from patent US20050148786A1, “Diimmonium compound and use thereof” (Nippon Kayaku Kabushiki Kaisha, priority 2003, published 2005).
